Laboratory results from ChEMBL document CHEMBL5376005, “Gut Metabolite Indoxyl Sulfate Has Selective Deleterious and Anticancer Effect on Colon Cancer Cells” (J Med Chem, 2023).
Where a name gives a salt, the structure may show the parent alone. Active and inactive are the calls of the source. No cut-off for these calls is given here.

How the values were obtained:
HT-29 [1] = test: Induction of morphological changes in human HT-29 cells assessed as formation of intracellular vesicles at 1.25 to 10 mM incubated for 24 to 72 hrs by bright field microscopy analysis; assay type: functional, cell-based; conditions: dose 1.25-10 mM, time 24-72 hrs
HCT-116 [2] = test: Induction of morphological changes in human HCT-116 cells assessed as loss of adhesion with free floating in medium at 10 mM incubated for 24 to 72 hrs by bright field microscopy analysis; assay type: functional, cell-based; conditions: time 24-72 hrs
HT-29 [3] = test: Induction of morphological changes in human HT-29 cells assessed as loss of adhesion with free floating in medium at 10 mM incubated for 24 to 72 hrs by bright field microscopy analysis; assay type: functional, cell-based; conditions: time 24-72 hrs
HCT-116 [4] = test: Cytotoxicity against human HCT-116 cells assessed as reduction in colony formation pretreated for 48 hrs and further incubated for 10 days with media replacement for every alternate day; assay type: functional, cell-based; conditions: dose 1.25-10 mM
HT-29 [5] = test: Cytotoxicity against human HT-29 cells assessed as reduction in colony formation pretreated for 48 hrs and further incubated for 10 days with media replacement for every alternate day; assay type: functional, cell-based; conditions: dose 1.25-10 mM
HCT-116 [6] = test: Induction of cell cycle arrest in human HCT-116 cells assessed as increase in proportion of cells at G2/M phase at 5 mM incubated for 48 hrs by RNase A/Triton X-100/PI staining based flow cytometry analysis relative to control; assay type: functional
HCT-116 [7] = test: Induction of cell cycle arrest in human HCT-116 cells assessed as increase in proportion of cells at G2/M phase at 10 mM incubated for 48 hrs by RNase A/Triton X-100/PI staining based flow cytometry analysis relative to control; assay type: functional
HT-29 [8] = test: Induction of cell cycle arrest in human HT-29 cells assessed as increase in proportion of cells at G2/M phase at 5 mM incubated for 48 hrs by RNase A/Triton X-100/PI staining based flow cytometry analysis relative to control; assay type: functional
HT-29 [9] = test: Induction of cell cycle arrest in human HT-29 cells assessed as increase in proportion of cells at G2/M phase at 10 mM incubated for 48 hrs by RNase A/Triton X-100/PI staining based flow cytometry analysis relative to control; assay type: functional
HCT-116 [10] = test: Induction of cell cycle arrest in human HCT-116 cells assessed as increase in proportion of cells at G2/M phase incubated for 48 hrs by RNase A/Triton X-100/PI staining based flow cytometry analysis; assay type: functional; conditions: dose 1.25-10 mM
HT-29 [11] = test: Induction of cell cycle arrest in human HT-29 cells assessed as increase in proportion of cells at G2/M phase incubated for 48 hrs by RNase A/Triton X-100/PI staining based flow cytometry analysis; assay type: functional; conditions: dose 1.25-10 mM
[12] = Toxicity in wild type BALB/c mouse assessed as reduction in body weight at 100 mM, ip measured after 12 weeks; assay type: organism-based; conditions: in vivo, 2016 h, 100000 µM
[13] = Toxicity in wild type BALB/c mouse assessed as reduction in body weight at 100 mM, REC measured after 12 weeks; conditions: in vivo, other, 2016 h, 100000 µM
[14] = Toxicity in wild type BALB/c mouse assessed as change in spleen length at 100 mM, ip measured after 12 weeks; assay type: organism-based; conditions: in vivo, 2016 h, 100000 µM
[15] = Toxicity in wild type BALB/c mouse assessed as change in spleen length at 100 mM, REC measured after 12 weeks; conditions: in vivo, other, 2016 h, 100000 µM
[16] = Toxicity in wild type BALB/c mouse assessed as change in intestinal length at 100 mM, ip measured after 12 weeks; assay type: organism-based, Intestine; conditions: in vivo, 2016 h, 100000 µM
[17] = Toxicity in wild type BALB/c mouse assessed as change in intestinal length at 100 mM, REC measured after 12 weeks; assay type: tissue-based, Intestine; conditions: in vivo, other, 2016 h, 100000 µM
[18] = Toxicity in wild type BALB/c mouse assessed as histological change in colon at 100 mM, ip measured after 12 weeks by H and E staining based light microscopic analysis; assay type: organism-based; conditions: in vivo, 2016 h, 100000 µM
[19] = Toxicity in wild type BALB/c mouse assessed as histological change in colon at 100 mM, REC measured after 12 weeks by H and E staining based light microscopic analysis; assay type: tissue-based; conditions: in vivo, other, 2016 h, 100000 µM
[20] = Toxicity in wild type BALB/c mouse assessed as histological change in rectum at 100 mM, ip measured after 12 weeks by H and E staining based light microscopic analysis; assay type: organism-based; conditions: in vivo, 2016 h, 100000 µM
[21] = Toxicity in wild type BALB/c mouse assessed as histological change in rectum at 100 mM, REC measured after 12 weeks by H and E staining based light microscopic analysis; conditions: in vivo, other, 2016 h, 100000 µM
[22] = Toxicity in wild type BALB/c mouse assessed as inflammatory symptoms by measuring change in fecal consistency at 100 mM, REC measured after 12 weeks; conditions: in vivo, other, 2016 h, 100000 µM
[23] = Toxicity in wild type BALB/c mouse assessed as inflammatory symptoms by measuring change in fecal consistency at 100 mM, ip measured after 12 weeks; assay type: organism-based; conditions: in vivo, 2016 h, 100000 µM
[24] = Toxicity in wild type BALB/c mouse assessed as inflammatory symptoms by measuring change in IL-17 level at 100 mM, ip measured for 0 to 3 months by ELISA; assay type: organism-based; conditions: in vivo, 100000 µM, time 0-3 months
[25] = Toxicity in wild type BALB/c mouse assessed as inflammatory symptoms by measuring change in IL-17 level at 100 mM, REC measured for 0 to 3 months by ELISA; conditions: in vivo, other, 100000 µM, time 0-3 months
[26] = Toxicity in wild type BALB/c mouse assessed as inflammatory symptoms by measuring change in IL-1beta level at 100 mM, ip measured for 0 to 3 months by ELISA; assay type: organism-based; conditions: in vivo, 100000 µM, time 0-3 months
[27] = Toxicity in wild type BALB/c mouse assessed as inflammatory symptoms by measuring change in IL-1beta level at 100 mM, REC measured for 0 to 3 months by ELISA; conditions: in vivo, other, 100000 µM, time 0-3 months
[28] = Toxicity in wild type BALB/c mouse assessed as inflammatory symptoms by measuring change in TNFalpha level at 100 mM, ip measured for 0 to 3 months by ELISA; assay type: organism-based; conditions: in vivo, 100000 µM, time 0-3 months
[29] = Toxicity in wild type BALB/c mouse assessed as inflammatory symptoms by measuring change in TNFalpha level at 100 mM, REC measured for 0 to 3 months by ELISA; conditions: in vivo, other, 100000 µM, time 0-3 months
HCT-116 [30] = test: Induction of ROS production in human HCT-116 cells incubated for 48 hrs by DHE staining based analysis; assay type: functional, cell-based
HT-29 [31] = test: Induction of ROS production in human HT-29 cells incubated for 48 hrs by DHE staining based analysis; assay type: functional, cell-based
HCT-116 [32] = test: Induction of DNA damage in human HCT-116 cells by comet assay; assay type: functional, cell-based
HT-29 [33] = test: Induction of DNA damage in human HT-29 cells by comet assay; assay type: functional, cell-based

With `O=S(=O)(O)Oc1c[nH]c2ccccc12` [INDOXYL SULFATE] the Activity (HT-29 [1]) was “Active”, the Activity (HCT-116 [2]) was “Active” and the Activity (HT-29 [3]) was “Active”. For the same molecule, the Activity (HCT-116 [4]) was “Dose-Dependent Effect”, the Activity (HT-29 [5]) was “Dose-Dependent Effect” and the Activity (HCT-116 [6]) was 18.1%. For the same molecule, the Activity (HCT-116 [7]) was 22.7%, the Activity (HT-29 [8]) was 14.2% and the Activity (HT-29 [9]) was 17.3%. The Activity (HCT-116 [10]) was “Dose-Dependent Effect”, the Activity (HT-29 [11]) was “Dose-Dependent Effect” and the Activity [12] was “Non-Toxic”. The Activity [13] was “Non-Toxic”, the Activity [14] was “Non-Toxic” and the Activity [15] was “Non-Toxic”. The Activity [16] was “Non-Toxic”, the Activity [17] was “Non-Toxic” and the Activity [18] was “Non-Toxic”. For the same molecule, the Activity [19] was “Non-Toxic”, the Activity [20] was “Non-Toxic” and the Activity [21] was “Non-Toxic”. The Activity [22] was “Non-Toxic”, the Activity [23] was “Non-Toxic” and the Activity [24] was “Non-Toxic”. The Activity [25] was “Non-Toxic”, the Activity [26] was “Non-Toxic” and the Activity [27] was “Non-Toxic”. For the same molecule, the Activity [28] was “Non-Toxic”, the Activity [29] was “Non-Toxic” and the Activity (HCT-116 [30]) was “inactive”. The Activity (HT-29 [31]) was “inactive”, the Activity (HCT-116 [32]) was “inactive” and the Activity (HT-29 [33]) was “inactive”.
